Source: patent US10807958B2, “1,4-bis(3-aminopropyl)piperazine derivative and its use” (INSERM (Institut National de la Sante et de la Recherche …, priority 2015, dated 2020)

Columns and labels:
Thy-Tau22 mice = assay: Immunohistochemical measurement of tau pathology (NFT burden) in hippocampal CA1; type: in vivo, mouse; conditions: Thy-Tau22, 0.5 mg/kg vs untreated, FIG. 5
Excerpt: Wild-type C57BL/6J animals of 3 months were purchased at Charles Rivers Laboratories (France) and were allow to acclimate in the animal facility for at least one week before any treatment. Thy-Tau22 transgenic colonies (C57BL/6J genetic background) were obtained by crossing heterozygous Thy-Tau22 males with C57BL/6 WT females. […] In this model, a progressive development of NFT is observed in the hippocampus and amygdala, which parallels behavioral impairments (Schindowski et al., 2006). Furthermorever, in the hippocampus, hyper- and abnormally phosphorylated Tau species accumulate within the somato-dendritic area (Schindowski et al., 2006). For animal treatment, animals were randomly distributed and the compound of Formula I was given in the drinking water at final concentration of 0.5 or 1 mg/kg. Drinking bottles were changed once per week, volume consumption was measured along the treatment period. Food consumption and body weight were assessed. […] Quantification of labeled neurons was achieved using the NIH-Image J software and expressed in arbitrary units (A.U). The burden of NFT in the hippocampal CA1 was investigated by immunohistochemistry and quantification. […]

[1] = test system: Tau proteins of Thy-Tau22 animals (hippocampus); assay: 1D SDS-PAGE and Western-blot of Tau expression, catabolites and phosphorylation in hippocampus; type: in vivo, mouse; conditions: treated vs untreated, FIG. 6
Excerpt: Wild-type C57BL/6J animals of 3 months were purchased at Charles Rivers Laboratories (France) and were allow to acclimate in the animal facility for at least one week before any treatment. Thy-Tau22 transgenic colonies (C57BL/6J genetic background) were obtained by crossing heterozygous Thy-Tau22 males with C57BL/6 WT females. […] In this model, a progressive development of NFT is observed in the hippocampus and amygdala, which parallels behavioral impairments (Schindowski et al., 2006). Furthermorever, in the hippocampus, hyper- and abnormally phosphorylated Tau species accumulate within the somato-dendritic area (Schindowski et al., 2006).
For animal treatment, animals were randomly distributed and the compound of Formula I was given in the drinking water at final concentration of 0.5 or 1 mg/kg. Drinking bottles were changed once per week, volume consumption was measured along the treatment period. Food consumption and body weight were assessed. In wild-type animals the pilot study of drug treatment was performed for one month to establish the innocuousness of the treatment with the compound of Formula I. This was based on the physiological, social and behavioural assessments. Thy-Tau22 males were treated for 4 months starting at 3 month old. All protocols were approved by the local ethics committee (n^∘342012, CEEA).
After behavioral assessment, blood was collected in 1.5 mL polypropylene tubes (Eppendorf, France), mice were sacrificed by cervical dislocation to avoid any modifications instrumental to anesthesia (Lefreche et al. 2012). Hippocampi and cortices were dissected and snap frozen in 1.5 mL tubes (Eppendorf). Tissue was homogenized in Tris-HCl buffer (10 mM pH 7.4) containing 320 mM sucrose, protease inhibitors (Complete mini EDTA-free, Roche) sonicated and spun at 12,000×g for 10 min at 4° C. The supernatant was recovered, protein concentration was achieved using the BCA Protein quantification assay kit (Pierce) according to the manufacturer instruction. The supernatant was further processed for biochemical analyses or kept at −80° C. For 1D or 2D gels, the same lysis buffer was used. Thus, equal amount protein in Tris buffer were added with a solution containing 7M urea, 2M thiourée with 2% SDS and sonicated at 60 Hz 30 pulses.
For the western-blot analysis of Tau proteins, SDS-PAGE was performed according to the manufacturer's instructions using Bis-Tris 4-12% gradient acrylamide gel (NuPage® Bis-Tris PreCast 12 wells, Life Technologies). The apparent molecular weights were calibrated using the molecular weight markers (Novex and Magic Marks, Life Technologies). Electrophoresis was performed under a continuous tension of 100V/per gel for 1 h. Proteins were reversibly stained with Ponceau Red to check the quality of the efficacy of protein transfer. For western-blotting, the membranes were blocked in 25 mM Tris-HCl pH 8.0, 150 mM NaCl, 0.1% Tween-20 (v/v) (TBS-T) and 5% (w/v) of skimmed milk (TBS-M) for 30 min and they were incubated overnight at 4° C. the primary antibody. The nitrocellulose membrane is rinsed three times by gentle shaking in TBS-T during 10 min each. […]
Brain proteins (of hippocampus) from untreated and Compound I⋅HCl treated thy-tau22 animals were resolved by 1D SDS-PAGE and Tau proteins were labeled with Pan-Tau antibodies (N-ter, C-ter). Catabolites detected with these antibodies are indicated as f-Nter and f-Cter. […]

[2] = ratio phospho-epitope/total hTau

Compound: CC(C)CN(CCCN1CCN(CCCNc2c3c(nc4ccccc24)CCCC3)CC1)CC(C)C.Cl [Compound I⋅HCl, N-[3-(4-{3-[Bis(2-methylpropyl)amino]propyl}piperazin-1-yl)propyl]-1,2,3,4-tetrahydroacridin-9-amine hydrochloride]
- AT8 immunostaining (Thy-Tau22 mice): no significant differences
- average surface of staining after AT100 staining (Thy-Tau22 mice): significantly reduced
- Tau C-terminal catabolites products at 43 kDa [1]: significantly increased
- Tau N-terminal catabolites [1]: significantly decreased
- Tau phosphorylation at other phospho-sites (pSer199, pSer262, pSer422, Tau-1) [1]: not significantly modified
- Tau phosphorylation at phospho-site 396 [1, 2]: significant reduction
- Tau phosphorylation at phospho-site 404 [1, 2]: significant reduction
